The values that follow come from ChEMBL document CHEMBL3826933, “Discovery of 7-(Prolinol-N-yl)-2-phenylamino-thiazolo[5,4-d]pyrimidines as Novel Non-Nucleoside Partial Agonists for the A2A Adenosine Receptor: Prediction from Molecular Modeling” (J Med Chem, 2016).

The target of data set [1] is T1, Adenosine receptor A2a (Homo sapiens, UniProt P29274). The data set is described as follows: Displacement of [3H]NECA from recombinant human adenosine A2A receptor expressed in CHO cell membrane after 3 hrs by microbeta scintillation counting method. Format: cell membranes. (In a radioligand displacement assay an active substance lowers the binding of a labelled ligand.)
T1 sequence (P29274 whole entry): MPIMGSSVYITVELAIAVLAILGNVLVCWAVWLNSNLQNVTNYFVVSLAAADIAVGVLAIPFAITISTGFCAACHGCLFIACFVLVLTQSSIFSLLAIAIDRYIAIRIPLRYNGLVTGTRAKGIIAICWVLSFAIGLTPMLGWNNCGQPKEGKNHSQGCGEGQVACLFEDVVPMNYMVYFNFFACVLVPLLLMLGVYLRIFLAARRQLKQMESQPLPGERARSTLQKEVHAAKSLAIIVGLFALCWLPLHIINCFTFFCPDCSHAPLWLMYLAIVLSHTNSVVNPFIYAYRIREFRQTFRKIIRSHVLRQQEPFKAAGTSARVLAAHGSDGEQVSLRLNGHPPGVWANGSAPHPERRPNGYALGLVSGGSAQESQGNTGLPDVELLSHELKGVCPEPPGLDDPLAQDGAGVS

The target of data set [2] is T2, Adenosine receptor A2b (Homo sapiens, UniProt P29275).
T2 sequence (P29275 whole entry): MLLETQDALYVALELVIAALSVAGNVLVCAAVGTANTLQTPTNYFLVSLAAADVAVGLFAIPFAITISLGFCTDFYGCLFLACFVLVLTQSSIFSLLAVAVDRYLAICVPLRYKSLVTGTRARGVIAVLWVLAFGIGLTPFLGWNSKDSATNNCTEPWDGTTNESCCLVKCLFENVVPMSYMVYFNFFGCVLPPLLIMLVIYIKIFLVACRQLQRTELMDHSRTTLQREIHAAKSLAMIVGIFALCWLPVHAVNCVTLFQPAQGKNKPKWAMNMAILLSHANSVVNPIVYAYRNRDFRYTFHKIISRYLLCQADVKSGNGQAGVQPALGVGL
Nature of the data set: Antagonist activity at recombinant human adenosine A2B receptor expressed in CHOK1 cell membrane assessed as inhibition of NECA-stimulated adenylyl cyclase activity incubated for 20 mins in presence of [alpha32P]ATP. Type of data set: functional, cell-based, CHO-K1.

Data set [3] addresses T3, Adenosine receptor A1 (Homo sapiens, UniProt P30542).
T3 sequence (P30542 whole entry): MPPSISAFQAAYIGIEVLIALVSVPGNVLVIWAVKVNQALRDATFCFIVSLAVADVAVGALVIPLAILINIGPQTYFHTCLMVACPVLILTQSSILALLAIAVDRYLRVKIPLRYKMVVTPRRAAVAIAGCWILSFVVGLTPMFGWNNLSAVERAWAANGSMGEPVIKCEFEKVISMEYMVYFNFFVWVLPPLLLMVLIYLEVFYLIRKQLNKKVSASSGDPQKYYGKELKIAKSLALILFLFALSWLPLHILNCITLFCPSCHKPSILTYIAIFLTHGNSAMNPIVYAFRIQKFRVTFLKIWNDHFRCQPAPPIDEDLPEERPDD
Nature of the data set: Displacement of [3H]CCPA from recombinant human adenosine A1 receptor expressed in CHO cell membrane after 3 hrs by microbeta scintillation counting method. Format: cell membranes.

In data set [4] the target is T4, Adenosine receptor A3 (Homo sapiens, UniProt P0DMS8).
T4 sequence (P0DMS8 whole entry): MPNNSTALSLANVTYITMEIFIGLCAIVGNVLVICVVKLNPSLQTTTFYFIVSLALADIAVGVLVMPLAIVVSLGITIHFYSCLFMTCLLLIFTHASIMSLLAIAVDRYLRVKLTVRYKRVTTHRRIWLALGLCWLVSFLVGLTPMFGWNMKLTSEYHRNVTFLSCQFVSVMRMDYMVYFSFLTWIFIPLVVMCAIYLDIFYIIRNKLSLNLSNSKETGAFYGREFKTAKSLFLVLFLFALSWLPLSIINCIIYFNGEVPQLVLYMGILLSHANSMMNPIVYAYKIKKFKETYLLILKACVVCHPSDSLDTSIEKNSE
Nature of the data set: biochemical.
Description: Displacement of [3H]HEMADO from recombinant human adenosine A3 receptor expressed in CHO cell membrane after 3 hrs by microbeta scintillation counting method

The target of data set [5] is T1, Adenosine receptor A2a. The data set is described as follows: Partial agonist activity at recombinant human adenosine A2A receptor expressed in CHOK1 cell membrane assessed as adenylyl cyclase activity at 1 to 100 uM incubated for 20 mins in presence of [alpha32P]ATP relative to NECA. The note with it: CHO-K1. Format: functional, cell-based.
Data set [6] relates to CHO. Nature of the data set: Selectivity ratio of Ki for recombinant human adenosine A1 receptor expressed in CHO cell membrane to Ki for recombinant human adenosine A2A receptor expressed in CHO cell membrane. Format: cell-based.
In data set [7] the test system is CHO. The data set is described as follows: Selectivity ratio of Ki for recombinant human adenosine A3 receptor expressed in CHO cell membrane to Ki for recombinant human adenosine A2A receptor expressed in CHO cell membrane. Type of data set: cell-based.
The nature of data set [8]: Thermodynamic equilibrium solubility of compound in water at 1 to 300 ug after overnight incubation by microplate reader analysis. The conditions noted are these: read-out: Therm_solubility. Format: physicochemical.
The target of data set [9] is T1, Adenosine receptor A2a. Nature of the data set: Partial agonist activity at recombinant human adenosine A2A receptor expressed in CHOK1 cell membrane assessed as adenylyl cyclase activity at 100 uM incubated for 20 mins in presence of [alpha32P]ATP relative to NECA. Format: functional, cell-based. The note with it: CHO-K1.

The term Ki denotes a dissociation constant, usually derived from enzyme kinetics or from competition with a known ligand. In the case of `O=[N+]([O-])c1ccc(Nc2nc3c(Cl)ncnc3s2)cc1`, the Ki in data set [1] was greater than 30 µM; in [2] it was greater than 10 µM; in data set [3], greater than 30 µM; in [4], 7.95 µM.

On to `COc1ccc(Nc2nc3c(N4CCC[C@H]4CO)ncnc3s2)cc1`, for which the Ki in data set [1] is 1.11 µM; in data set [2] it was greater than 10 µM; in data set [3], 0.713 µM; in [4], 0.594 µM.

For the molecule `Fc1cccc(F)c1Nc1nc2c(N3CCCC3)ncnc2s1`, the inhibition constant Ki in data set [1] is 2.26 µM; in [2], greater than 10 µM; in data set [3], 2.31 µM; in data set [4] it was 3.19 µM. Further, the Efficacy in data set [5] is 10%.

Regarding `CN1CCN(c2ncnc3sc(Nc4ccc(Cl)cc4)nc23)CC1`, the Ki is greater than 100 µM in [1], greater than 10 µM in data set [2], greater than 100 µM in data set [3] and greater than 10 µM in data set [4].

As to `Clc1ccc(Nc2nc3c(N4CCOCC4)ncnc3s2)cc1`, the inhibition constant (Ki) in data set [1] was 1.4 µM; in data set [2], greater than 10 µM; in data set [3] it was greater than 100 µM; in data set [4], greater than 100 µM.

With `Clc1ccc(Nc2nc3c(Cl)ncnc3s2)cc1`, the inhibition constant (Ki) is 2.69 µM in data set [1], greater than 10 µM in data set [2], 25 µM in [3] and 4.94 µM in data set [4].

Turning to `Clc1ncnc2sc(Nc3cccc(Br)c3)nc12`, the Ki in data set [1] is 2.96 µM; in data set [2], greater than 10 µM; in [3] it was 12.6 µM; in [4], 3.9 µM.

As to `c1ccc(Nc2nc3c(N4CCCC4)ncnc3s2)cc1`, the Ki in data set [1] is 0.351 µM; in [2], greater than 10 µM; in [3], greater than 30 µM; in data set [4], 8.63 µM. Besides, the Efficacy in data set [5] turned out to be 10%.

Regarding `COc1cc(Nc2nc3c(Cl)ncnc3s2)cc(OC)c1OC`, the Ki in [1] was 1.05 µM; in data set [2], greater than 10 µM; in data set [3], greater than 100 µM; in data set [4], 2.65 µM.

As for `CN(C)c1ncnc2sc(Nc3ccccc3)nc12`, the Ki in [1] was 1.27 µM; in data set [2], greater than 10 µM; in [3], greater than 100 µM; in [4], 1.28 µM.

Take `COc1cc(Nc2nc3c(N4CCCC4)ncnc3s2)cc(OC)c1OC`: the Ki is 0.102 µM in [1], greater than 10 µM in [2], greater than 100 µM in [3] and 1.28 µM in data set [4]. Further, the Ratio Ki in data set [6] was greater than 100; in data set [7], 12. In [5], the Efficacy worked out at 10%.

As to `O=[N+]([O-])c1ccc(Nc2nc3c(N4CCCC4)ncnc3s2)cc1`, the inhibition constant Ki is 3.18 µM in data set [1], greater than 10 µM in [2], greater than 30 µM in data set [3] and 3.63 µM in data set [4].

In the case of `CN(C)c1ncnc2sc(Nc3ccc(Cl)cc3)nc12`, the inhibition constant Ki in data set [1] is greater than 100 µM; in data set [2], greater than 10 µM; in data set [3] it was greater than 100 µM; in data set [4], greater than 10 µM.

Take `Brc1cccc(Nc2nc3c(N4CCCC4)ncnc3s2)c1`: the Ki is 0.245 µM in [1], greater than 10 µM in data set [2], greater than 100 µM in data set [3] and 1.29 µM in [4]. Moreover, the solubility thermodynamic in [8] is greater than 150 µg/mL. In data set [5], the Efficacy is 10%.

Regarding `CCN1CCN(c2ncnc3sc(Nc4ccccc4)nc23)CC1`, the Ki in data set [1] is 8.39 µM; in data set [2], greater than 10 µM; in data set [3] it was greater than 100 µM; in data set [4], greater than 30 µM.

With `Clc1ncnc2sc(NCCN3CCOCC3)nc12`, the inhibitory constant (Ki) in data set [1] is greater than 100 µM; in data set [2], greater than 10 µM; in [3], greater than 100 µM; in data set [4] it was greater than 100 µM.

Regarding `CCN(CC)c1ncnc2sc(Nc3ccccc3)nc12`, the inhibition constant Ki was 2.21 µM in data set [1], greater than 10 µM in data set [2], greater than 100 µM in data set [3] and greater than 30 µM in [4].

Turning to `c1ccc(Nc2nc3c(N4CCOCC4)ncnc3s2)cc1`, the Ki in data set [1] is 0.333 µM; in data set [2], greater than 10 µM; in data set [3], greater than 100 µM; in data set [4] it was 4.46 µM. For the same molecule, the Ratio Ki in data set [6] was greater than 3000; in data set [7] it was 13.

In the case of `Cc1ccc(Nc2nc3c(Cl)ncnc3s2)cc1`, the Ki is 4.93 µM in data set [1], greater than 10 µM in data set [2], greater than 100 µM in data set [3] and 4.64 µM in data set [4].

On to `Clc1ccc(Nc2nc3c(N4CCCC4)ncnc3s2)cc1`, for which the inhibition constant Ki was 2.06 µM in data set [1], greater than 10 µM in data set [2], greater than 100 µM in [3] and 4.26 µM in data set [4]. For the same molecule, the Efficacy in data set [5] amounted to 10%.

`Fc1cccc(F)c1Nc1nc2c(Cl)ncnc2s1`: the Ki in [1] was 8.11 µM; in [2], greater than 10 µM; in [3], 17.8 µM; in data set [4], 17.2 µM.

With `OC[C@@H]1CCCN1c1ncnc2sc(Nc3c(F)cccc3F)nc12`, the Efficacy in [9] was determined as 50%. Besides, the inhibition constant (Ki) in data set [1] was 3.26 µM; in data set [2], greater than 10 µM; in data set [3], 7.97 µM; in [4], 3.42 µM.

Consider `Clc1ccc(Nc2nc3c(N4CCCCC4)ncnc3s2)cc1`, for which the inhibition constant (Ki) in [1] is 13.2 µM; in data set [2], greater than 10 µM; in data set [3], greater than 100 µM; in data set [4], 18.3 µM.

Regarding `Clc1ncnc2sc(Nc3ccccc3)nc12`, the Ki in data set [1] is 1.52 µM; in [2], greater than 10 µM; in data set [3] it was greater than 100 µM; in data set [4], 3.67 µM.

For the molecule `CN1CCN(c2ncnc3sc(Nc4ccccc4)nc23)CC1`, the Ki in data set [1] is 2.84 µM; in data set [2], greater than 10 µM; in data set [3], greater than 30 µM; in [4], 4.31 µM.

`COc1cc(Nc2nc3c(N4CCC[C@H]4CO)ncnc3s2)cc(OC)c1OC`: the Efficacy in [9] turned out to be 50%. In addition, the Ki was 0.33 µM in [1], greater than 10 µM in [2], 0.974 µM in data set [3] and 1.46 µM in data set [4].

As for `c1ccc(Nc2nc3c(N4CCC(N5CCCCC5)CC4)ncnc3s2)cc1`, the Ki in data set [1] is greater than 100 µM; in data set [2], greater than 10 µM; in data set [3] it was greater than 100 µM; in data set [4], greater than 100 µM.

For the molecule `S=C(NCc1ccccc1)N(Cc1ccccc1)c1nc2c(Cl)ncnc2s1`, the inhibition constant (Ki) in [1] is 1.87 µM; in data set [2] it was greater than 10 µM; in data set [3], greater than 30 µM.

For the molecule `Cc1ccc(Nc2nc3c(N4CCC[C@H]4CO)ncnc3s2)cc1`, the Efficacy in data set [9] amounted to 50%. Further, the Ki in [1] is 0.313 µM; in data set [2], greater than 10 µM; in data set [3], 0.399 µM; in data set [4] it was 0.843 µM.

As for `c1ccc(Nc2nc3c(N4CCNCC4)ncnc3s2)cc1`, the Ki is 9.09 µM in [1], greater than 10 µM in [2], greater than 30 µM in [3] and greater than 10 µM in data set [4].

As to `c1ccc(Nc2nc3c(N4CCCCC4)ncnc3s2)cc1`, the Ki in [1] was 0.98 µM; in [2], greater than 10 µM; in data set [3], greater than 30 µM; in [4], 12.1 µM.

In the case of `O=C(Nc1nc2c(Cl)ncnc2s1)c1ccccc1`, the Ki in data set [1] is 1.5 µM; in [2], greater than 10 µM; in data set [3] it was 7.24 µM; in [4], 7.33 µM.

Turning to `OC[C@@H]1CCCN1c1ncnc2sc(Nc3ccc(Cl)cc3)nc12`, the Efficacy in data set [9] amounted to 50%. The Ki is 0.466 µM in data set [1], greater than 10 µM in data set [2], 0.629 µM in data set [3] and 0.934 µM in [4].

In the case of `COc1ccc(Nc2nc3c(Cl)ncnc3s2)cc1`, the inhibition constant (Ki) is 3.57 µM in [1], greater than 10 µM in data set [2], 11.5 µM in [3] and 5.88 µM in [4].

With `CCN(CC)c1ncnc2sc(Nc3ccc(Cl)cc3)nc12`, the Ki in [1] was 11.2 µM; in [2], greater than 10 µM; in data set [3], 16.5 µM; in data set [4], 3.89 µM.
